Source: patent publication US20090156577A1, “7-AMINO ALKYLIDENYL-HETEROCYCLIC QUINOLONES AND NAPHTHYRIDONES” (priority 2004, published 2009)
In brackets after ≈: the same amount, converted by molar mass. Counter-ions that a name gives are not always drawn. Like-named read-outs stand apart in the source and are kept apart here.

Tested on: pathogenic bacteria
Experiment: MIC by microdilution broth method (NCCLS M7-A4), in vitro antibacterial activity
Assay type: cell-based
Procedure: Minimal inhibitory concentration (MIC) has been an indicator of in vitro antibacterial activity widely used in the art. The in vitro antimicrobial activity of the compounds was determined by the microdilution broth method following the test method from the National Committee for Clinical Laboratory Standards (NCCLS). This method is described in the NCCLS Document M7-A4, Vol. 17, No. 2, “Methods for Dilution Antimicrobial Susceptibility Test for Bacteria that Grow Aerobically—Fourth Edition”, which is incorporated herein by reference.
In this method two-fold serial dilutions of drug in cation adjusted Mueller-Hinton broth are added to wells in microdilution trays. The test organisms are prepared by adjusting the turbidity of actively growing broth cultures so that the final concentration of test organism after it is added to the wells is approximately 5×10^4 CFU/well.
Following inoculation of the microdilution trays, the trays are incubated at 35° C. for 16-20 hours and then read. […] The amount of growth in the wells containing the test compound is compared with the amount of growth in the growth-control wells (no test compound) used in each tray. As set forth in Table 5, compounds of the present invention were tested against a variety of pathogenic bacteria resulting in a range of activities depending on the organism tested.

[1] = Staphylococcus aureus, Organism A: Staphylococcus aureus OC4172, read-out: MIC
[2] = Streptococcus pneumoniae, ATCC49619, Organism E: Streptococcus pneumoniae ATCC 49619, read-out: MIC
[3] = Streptococcus pneumoniae, Organism B: fluoroquinolone-resistant clinical isolate of Streptococcus pneumoniae (QRDR amino acid substitutions)
[4] = Streptococcus pneumoniae, Organism C: fluoroquinolone-resistant clinical isolate of Streptococcus pneumoniae (QRDR amino acid substitutions)
[5] = Streptococcus pneumoniae, Organism D: fluoroquinolone-resistant clinical isolate of Streptococcus pneumoniae (QRDR amino acid substitutions)

| Compound | MIC [1] [µg/mL] | MIC [2] [µg/mL] | MIC [3] [µg/mL] | MIC [4] [µg/mL] | MIC [5] [µg/mL] |
| --- | --- | --- | --- | --- | --- |
| NCC(F)=C1CCN(c2nc3c(cc2F)c(=O)c(C(=O)O)cn3C2CC2)CC1 [Compound 1, 7-[4-(2-Amino-1-fluoro-ethylidene)-piperidin-1-yl]-1-cyclopropyl-6-fluoro-4-oxo-1,4-dihydro-[1,8]naphthyridine-3-carboxylic acid] | 0.03 (≈ 0.0768 µM) | 0.12 (≈ 0.307 µM) | 2 (≈ 5.12 µM) | 0.5 (≈ 1.28 µM) | 1 (≈ 2.56 µM) |
| CC(CN)=C1CCN(c2nc3c(cc2F)c(=O)c(C(=O)O)cn3C2CC2)CC1 [Compound 2, 7-[4-(2-Amino-1-methyl-ethylidene)-piperidin-1-yl]-1-cyclopropyl-6-fluoro-4-oxo-1,4-dihydro-[1,8]naphthyridine-3-carboxylic acid] | 0.06 (≈ 0.155 µM) | 0.12 (≈ 0.311 µM) | 0.25 (≈ 0.647 µM) | 1 (≈ 2.59 µM) | 1 (≈ 2.59 µM) |
| NCC(Cl)=C1CCN(c2nc3c(cc2F)c(=O)c(C(=O)O)cn3C2CC2)CC1 [Compound 3, 7-[4-(2-Amino-1-chloro-ethylidene)-piperidin-1-yl]-1-cyclopropyl-6-fluoro-4-oxo-1,4-dihydro-[1,8]naphthyridine-3-carboxylic acid] | 0.06 (≈ 0.147 µM) | 0.12 (≈ 0.295 µM) | 1 (≈ 2.46 µM) | 0.25 (≈ 0.614 µM) | 1 (≈ 2.46 µM) |
| NCC(F)=C1CCN(c2nc3c(cc2F)c(=O)c(C(=O)O)cn3-c2ccc(F)cc2F)CC1 [Compound 4, 7-[4-(2-Amino-1-fluoro-ethylidene)-piperidin-1-yl]-1-(2,4-difluoro-phenyl)-6-fluoro-4-oxo-1,4-dihydro-[1,8]naphthyridine-3-carboxylic acid] | 0.06 (≈ 0.13 µM) | 0.25 (≈ 0.541 µM) |  | 1 (≈ 2.16 µM) | 2 (≈ 4.33 µM) |
| NCC(F)=C1CCN(c2cc3c(cc2F)c(=O)c(C(=O)O)cn3C2CC2)CC1 [Compound 5, 7-[4-(2-Amino-1-fluoro-ethylidene)-piperidin-1-yl]-l - cyclopropyl-6-fluoro-4-oxo-1,4-dihydro-quinoline-3-carboxylic acid trifluoroacetic acid salt] | 0.03 |  |  | 1 |  |
| COc1c(N2CCC(=C(C)CN)CC2)c(F)cc2c(=O)c(C(=O)O)cn(C3CC3)c12 [Compound 6, 7-[4-(2-Amino-1-methyl-ethylidene)-piperidin-1-yl]-1-cyclopropyl-6-fluoro-8-methoxy-4-oxo-1,4-dihydro-quinoline-3-carboxylic acid] | 0.03 (≈ 0.0722 µM) | 0.06 (≈ 0.144 µM) |  | 0.5 (≈ 1.2 µM) |  |
| COc1c(N2CCC(=C(Cl)CN)CC2)c(F)cc2c(=O)c(C(=O)O)cn(C3CC3)c12 [Compound 7, 7-[4-(2-Amino-1-chloro-ethylidene)-piperidin-1-yl]-1-cyclopropyl-6-fluoro-8-methoxy-4-oxo-1,4-dihydro-quinoline-3-carboxylic Acid] | 0.015 (≈ 0.0344 µM) | 0.06 (≈ 0.138 µM) | 0.06 (≈ 0.138 µM) | 0.12 (≈ 0.275 µM) | 0.12 (≈ 0.275 µM) |
| CC1COc2c(N3CCC(=C(F)CN)CC3)c(F)cc3c(=O)c(C(=O)O)cn1c23 (stereo not shown) [Compound 8, 9-[4-(2-Amino-1-fluoro-ethylidene)-piperidin-1-yl]-8-fluoro-3-methyl-6-oxo-2,3-dihydro-6H-1-oxa-3a-aza-phenalene-5-carboxylic acid] | 0.25 (≈ 0.617 µM) | 0.5 (≈ 1.23 µM) | 2 (≈ 4.93 µM) | 8 (≈ 19.7 µM) | 8 (≈ 19.7 µM) |
| CC(CN)=C1CCN(c2c(F)cc3c(=O)c(C(=O)O)cn4c3c2OCC4C)CC1 (stereo not shown) [Compound 9, 9-[4-(2-Amino-1-methyl-ethylidene)-piperidin-1-yl]-8-fluoro-3-methyl-6-oxo-2,3-dihydro-6H-1-oxa-3a-aza-phenalene-5-carboxylic acid] | 0.5 (≈ 1.25 µM) | 1 (≈ 2.49 µM) | 4 (≈ 9.96 µM) | > 16 | > 16 |
| COc1c(N2CCC(=C(F)CN)CC2)ccc2c(=O)c(C(=O)O)cn(C3CC3)c12 [Compound 10, 7-[4-(2-Amino-1-fluoro-ethylidene)-piperidin-1-yl]-1-cyclopropyl-8-methoxy-4-oxo-1,4-dihydro-quinoline-3-carboxylic acid] | 0.03 (≈ 0.0747 µM) | 0.12 (≈ 0.299 µM) |  | 0.5 (≈ 1.25 µM) | 1 (≈ 2.49 µM) |
